Experimental findings from the NIST ThermoML archive (doi:10.1016/j.fluid.2005.04.003) are described below.

For data set [1] the following is noted: Liquid; for mass density: 298.15 K, 101.33 kPa.
A short description of data set [2]: refractive index (Na D-line) (dimensionless). The note with it: 298.15 K; 101.33 kPa; Liquid; Standard Abbe refractometry.

Molecules are shown by their SMILES. ± gives the expanded uncertainty stated by the source.

For the molecule `CCOC(C)(C)CC` [1,1-dimethylpropyl ethyl ether], in data set [1], the mass density is on record as 760.57 ± 0.66 kg/m3 and the Normal boiling temperature came to 101.42 ± 0.08 °C. Further, in data set [2], the refractive index was 1.38857 ± 0.00072.

`CCO` [ethanol]: in data set [1], the mass density was determined as 785.22 ± 0.64 kg/m3 and the Normal boiling temperature is 78.29 ± 0.08 °C. In addition, in data set [2], the refractive index worked out at 1.3592 ± 0.00073.

`CO` [methanol]: in data set [1], the mass density is recorded as 786.63 ± 0.63 kg/m3 and the Normal boiling temperature was determined as 64.4 ± 0.08 °C. For the same molecule, the refractive index in data set [2] worked out at 1.3264 ± 0.0007.

One may read the mass density as mass per unit of volume. What is called refractive index is the speed of light in vacuum divided by its phase velocity in the sample.
